According to the supplement of paper PMC10307832:

Experiments:
Experiment in all cases: relative viability (nuclei count vs DMSO), 5 days (fraction); higher = more cells survive
[1] = compound: O=C(C[C@H]1NCCC[C@@H]1O)Cn1cnc2cc(Br)c(Cl)cc2c1=O (racemic) [Halofuginone]
Procedure, shortened: (§1)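 Lung cancer cell lines in 1536-well plates were exposed by pinning to five library-drug doses (not always all listed) √10 apart, following an overnight hold at 37 °C. MetaXpress counted Hoechst-stained nuclei from 4× images taken after 5 days without medium change. Viability is the median ratio of treated-well to vehicle-well nuclei across plates. Plates required control CV below 25% and at least one doubling.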

[2] = compound: COc1cc2c(Oc3ccc4[nH]c(C)cc4c3F)ncnc2cc1OCCCN1CCCC1 [Cediranib]
Procedure, shortened: as §1

[3] = compound: Nc1ncn([C@H]2C[C@H](O)[C@@H](CO)O2)c(=O)n1 [Decitabine]
Procedure, shortened: as §1

UMC-11
relative viability ([1]; 0.001 µM): 1.12
relative viability ([1]; 0.003162 µM): 0.984
relative viability ([1]; 0.01 µM): 0.97
relative viability ([1]; 0.03162 µM): 0.901
relative viability ([1]; 0.1 µM): 0.702
relative viability ([2]; 0.04 µM): 0.989
relative viability ([2]; 0.1265 µM): 0.748
relative viability ([2]; 0.4 µM): 0.88
relative viability ([2]; 1.265 µM): 0.69
relative viability ([2]; 4 µM): 0.92
relative viability ([3]; 0.04 µM): 0.914
relative viability ([3]; 0.1265 µM): 0.8
relative viability ([3]; 0.4 µM): 0.536
relative viability ([3]; 1.265 µM): 0.387
relative viability ([3]; 2 µM, anchor plate): 0.638
relative viability ([3]; 4 µM): 0.419
